{"source": "patent US20260317304A1", "about": "“TEAD INHIBITORS AND METHODS OF USE” (Sporos BioDiscovery, Inc., priority 2022, published 2026)", "key": {"NCI-H226 cells": {"tested_on": "NCI-H226 cells", "assay": "Proliferation and cell viability assay, Cell Titer One", "type": "cell-based, human", "conditions": "Cell Titer One assay, 6 days", "method": "Cell proliferation of a TEAD dependent NF2-null mesothelioma cell line, NCI-H226 was assayed using two different protocols. Results were confirmed in two different TEAD-non-dependent lung cancer cell lines, H23 and H28, were used as non-responsive controls, as indicated:\nb) Cell Titer One (Promega, #G3582). The effect of the TEAD inhibitors disclosed herein on cell proliferation was also determined using the Promega Substrate Cell Titer Aqueous One Solution Reagent. The TEAD inhibitors were evaluated for the effects on cell proliferation responder (H226) and non-responder negative control cancer cell lines (CAMA1, H28), as well as non-transformed normal human cells (HUVEC, NHDF). Dissociated cells were resuspend in media (depending on cell line, either in DMEM, RPMI, or EMEM all with 10% FBS, with gentamicin as an antibiotic). Cells were seeded at 100 μL/well at 750 cells per well in 96-well plates and allowed to settle and attach. After an incubation of 24 hrs (37° C., 5% CO2, humidified incubator), 100 μL of test compound-containing media was added. A dilution series of 2000× concentrated stock of test compounds was prepared in DMSO, for final concentrations from 0.1 to 10,000 nM. After addition of test compound-containing media, cells were incubated for 6 days at 37° C., 5% CO2, humidified incubators). To measure cell density, 20 μL of Promega Substrate Cell Titer 96 Aqueous One Solution Reagent (Promega, #G3582) to each well was added according to the manufacturer's instructions. Plates were incubated at 37° C. for usually 3-8 hrs, to reach in the control cells (without compound) an OD of 1.5 at 490 nm. The OD was measured using Vmax [Molecular Devices] spectrophotometer plate reader. Media only-wells were used as background controls and cell densities normalized to DMSO vehicle control. EC50 were taken as the concentration achieving 50% of maximal growth inhibition.\nFor IC50 and EC50 data “A” indicates a value of less than 0.2 μM; the symbol “B” indicates a value in the range of from 0.2 μM up to 1 μM; and the symbol “C” indicates a value of greater than 1 μM. ND: no data."}, "MSTO-211H xenograft": {"tested_on": "MSTO-211H xenograft", "assay": "Mouse xenograft MSTO-211H tumors, study part 2", "type": "in vivo, BALB/c nude mice", "conditions": "PO", "from_the_text": "This study evaluated the in vivo anti-tumor efficacy of test compounds in BALB/c nude mice for treatment of MSTO-211H xenograft of lung cancer.\n• Species: Mus Musculus • Strain: BALB/c nude • Age: 6-8 weeks • Sex: female • Body weight: 18-22 g • Number of animals inoculated with tumor: 80 mice • Number of animals enrolled in the treatment: 36 mice • Number of unenrolled animals: 44 mice • Animal supplier: Beijing Vital River Biotechnology Experimental Animal Co. Ltd Certification number: 20170011010591\nThe MSTO-211H tumor cells were maintained in RPMI 1640 medium supplemented with 10% Fetal bovine serum and 1% Antibiotic-Antimycotic at 37° C. in an atmosphere of 5% CO2 in air. The tumor cells were routinely subcultured twice weekly by trypsin-EDTA. The cells growing in an exponential growth phase with 95% cell survival or above were harvested, and counted for tumor inoculation.\nEach mouse was inoculated subcutaneously at the right flank with MSTO-211H tumor cells (5×10^6+50% matrigel/0.2 mL) for tumor development. Animals were marked with earrings with unique 6 significant figure number for identification. The treatments of part 1 were started on day 5 after cell inoculation when the average tumor volume reached 181 mm^3. The treatments of part 2 were started on day 16 after cell inoculation when the average tumor volume reached 254 mm^3. The treatments of part 3 were started on day 33 after cell inoculation when the average tumor volume reached 969 mm^3.\nThe major endpoint was to determine if the tumor growth could be delayed. Tumor volume was measured twice a week in two dimensions using a caliper, and the volume was expressed in mm^3 using the formula: V=0.5 a×b^2 where a and b are the long and short diameters of the tumor, respectively. The tumor size was then used for calculations of T/C value. The TGI value (in percent) or the T/C value (in percent) is an indication of antitumor effectiveness; T and C are the mean tumor volumes or tumor weights of the treated and control groups, respectively, on a given day.\nTGI was calculated for each group using the formula: TGI (%)=[1−(Ti−T0)/(Vi−V0)]×100; Ti is the average tumor volume of a treatment group on a given day, T0 is the average tumor volume of the treatment group on the day of treatment start, Vi is the average tumor volume of the vehicle control group on the same day with Ti, and V0 is the average tumor volume of the vehicle group on the day of treatment start.\nRelative T/C (%)=TRTV/CRTV×100 (RTV (%)=Vt/V0×100, Vt is the average tumor volume on a given day, V0 is the average tumor volume on the first day of treatment. TRTV is the RTV of a treatment group, and the CRTV is the RTV of the vehicle control group.)\nThe antitumor effectiveness of part 2 study was analyzed on PG-D30 when vehicle group reached 738 mm^3.\nSummary statistics, including mean and the standard error of the mean (SEM), were provided for the tumor volume of each group at each time point.\nStatistical analysis of difference in tumor volume among the groups was conducted on the data obtained at the end of the study.\nOne-tailed T test was performed to compare tumor volumes between two groups. All data are analyzed using GraphPad Prism 6.0. p<0.05 is considered to be statistically significant."}, "[1]": {"conditions": "part 2, day 30, 12.5 mg/kg, BID"}}}
{"smiles": "Cn1cnc(-c2cc(C3(C)NC(=O)NC3=O)ccc2Nc2ccc(C(F)(F)F)cc2)c1", "note": "(single isomer, unassigned) [Compound 15, 5-methyl-5-(3-(1-methyl-1H-imidazol-4-yl)-4-((4-(trifluoromethyl)phenyl)amino)phenyl)imidazolidine-2,4-dione]", "values": [{"measurement": "IC50", "setting": "NCI-H226 cells", "value": "< 200", "unit": "nM"}]}
{"smiles": "Cn1nnc(-c2cc([C@]3(C)CCNC3=O)ccc2Nc2ccc(C(F)(F)F)cc2)n1", "note": "(stereo in doubt) [Compound 20, 3-methyl-3-(3-(2-methyl-2H-tetrazol-5-yl)-4-((4-(trifluoromethyl)phenyl)amino)phenyl) pyrrolidin-2-one]", "values": [{"measurement": "Tumor size", "setting": "MSTO-211H xenograft; part 2, day 0, 12.5 mg/kg, BID", "value": "254 ± 30", "unit": "mm^3"}, {"measurement": "Tumor size", "setting": "MSTO-211H xenograft; part 2, day 2, 12.5 mg/kg, BID", "value": "249 ± 37", "unit": "mm^3"}, {"measurement": "Tumor size", "setting": "MSTO-211H xenograft; part 2, day 6, 12.5 mg/kg, BID", "value": "160 ± 39", "unit": "mm^3"}, {"measurement": "Tumor size", "setting": "MSTO-211H xenograft; part 2, day 9, 12.5 mg/kg, BID", "value": "116 ± 36", "unit": "mm^3"}, {"measurement": "Tumor size", "setting": "MSTO-211H xenograft; part 2, day 12, 12.5 mg/kg, BID", "value": "80 ± 13", "unit": "mm^3"}, {"measurement": "Tumor size", "setting": "MSTO-211H xenograft; part 2, day 16, 12.5 mg/kg, BID", "value": "75 ± 10", "unit": "mm^3"}, {"measurement": "Tumor size", "setting": "MSTO-211H xenograft; part 2, day 20, 12.5 mg/kg, BID", "value": "78 ± 14", "unit": "mm^3"}, {"measurement": "Tumor size", "setting": "MSTO-211H xenograft; part 2, day 23, 12.5 mg/kg, BID", "value": "91 ± 10", "unit": "mm^3"}, {"measurement": "Tumor size", "setting": "MSTO-211H xenograft; part 2, day 27, 12.5 mg/kg, BID", "value": "96 ± 6", "unit": "mm^3"}, {"measurement": "T/C", "setting": "MSTO-211H xenograft; [1]", "value": 22.24, "unit": "%"}, {"measurement": "TGI", "setting": "MSTO-211H xenograft; [1]", "value": 118.44, "unit": "%"}, {"measurement": "Tumor size", "setting": "MSTO-211H xenograft; [1]", "value": "164 ± 15", "unit": "mm^3"}, {"measurement": "Tumor Volume", "setting": "MSTO-211H xenograft; part 2, day 30, 12.5 mg/kg, BID (Table 17)", "value": "164 ± 15", "unit": "mm^3"}]}
{"smiles": "Cn1cnc(-c2cc([C@@]3(C)CCNC3=O)ccc2Nc2ccc(C(F)(F)F)cc2)c1", "note": "(single isomer, unassigned) [Compound 5, 3-methyl-3-(3-(1-methyl-1H-imidazol-4-yl)-4-((4-(trifluoromethyl)phenyl)amino)phenyl)pyrrolidin-2-one]", "values": [{"measurement": "IC50", "setting": "NCI-H226 cells; Homo sapiens, NCI-H226, 144 h", "value": "< 200", "unit": "nM"}]}
